In ChEMBL document CHEMBL4765274, “The development of advanced structural framework as multi-target-directed ligands for the treatment of Alzheimer's disease” (Eur J Med Chem, 2020):
The source made the active and inactive calls. The rule behind the calls is not given here.

What was measured:
Acetylcholinesterase = Acetylcholinesterase (Homo sapiens, UniProt P22303); experiment: Inhibition of AChE in human erythrocytes by Ellman's method; format: cell-based, Erythrocyte
[1] = Inhibition of self-induced amyloid beta (1 to 42 residues) (unknown origin) aggregation by thioflavin T based fluorescence assay; set-up: species or system Homo sapiens; conditions: read-out: IC50
PC-12 = experiment: Neuroprotective activity against H2O2-induced cytotoxicity in rat PC-12 cells assessed as decrease in LDH activity at 1 to 10 uM preincubated for 2 hrs followed by H2O2 addition and measured after 24 hrs by LDH assay; format: functional, cell-based; conditions: dose 1-10 µM, time 26.0 hrs
Mus musculus [2] = experiment: Antialzheimer activity in scopolamine-induced Kunming mouse model of memory impairment assessed as Q30 bases ratio (raw data) in brain hippocampus at 5 mg/kg , po by illumina sequencing method (reference value: 93.53%); format: functional
Cholinesterase [3] = target: T1, Cholinesterase (Homo sapiens, UniProt P06276); experiment: Reversible inhibition of human BChE assessed as residual activity at IC50 concentration relative to control
T1 sequence (P06276 whole entry): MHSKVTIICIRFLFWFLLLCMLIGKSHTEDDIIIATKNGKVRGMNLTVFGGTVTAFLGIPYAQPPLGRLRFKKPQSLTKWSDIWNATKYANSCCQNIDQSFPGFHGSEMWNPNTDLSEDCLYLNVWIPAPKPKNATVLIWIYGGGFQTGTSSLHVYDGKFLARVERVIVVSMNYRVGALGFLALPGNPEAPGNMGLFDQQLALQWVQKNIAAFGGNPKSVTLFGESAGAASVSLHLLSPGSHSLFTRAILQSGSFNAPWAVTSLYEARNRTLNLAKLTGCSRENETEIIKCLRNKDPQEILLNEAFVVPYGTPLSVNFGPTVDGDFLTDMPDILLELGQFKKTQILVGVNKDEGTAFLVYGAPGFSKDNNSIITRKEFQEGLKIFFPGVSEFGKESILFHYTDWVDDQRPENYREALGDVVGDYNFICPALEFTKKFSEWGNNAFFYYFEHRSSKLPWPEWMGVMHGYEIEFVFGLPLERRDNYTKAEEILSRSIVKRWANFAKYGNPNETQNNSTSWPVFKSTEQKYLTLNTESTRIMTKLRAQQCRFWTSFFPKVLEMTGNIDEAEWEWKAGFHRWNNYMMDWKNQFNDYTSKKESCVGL

Cholinesterase [4] = target: T1, Cholinesterase; experiment: Reversible inhibition of human BChE assessed as residual activity at 0.1 times of IC50 concentration relative to control
[5] = (§1) Binding affinity to amyloid beta (1 to 42 residues) (unknown origin) by biolayer interferometry analysis; set-up: species or system Homo sapiens
Homo sapiens [6] = species: Homo sapiens; experiment: as §1
Homo sapiens [7] = species: Homo sapiens; experiment: Binding affinity to amyloid beta (1 to 42 residues) (unknown origin) assessed as dissociation rate constant by biolayer interferometry analysis
[8] = Metal chelating activity assessed as Cu2+-compound complex formation in methanol at 37.5 uM by UV-Visible spectra analysis
[9] = Metal chelating activity assessed as Al3+-compound complex formation in methanol at 37.5 uM by UV-Visible spectra analysis
[10] = Metal chelating activity assessed as Zn2+-compound complex formation in methanol at 37.5 uM by UV-Visible spectra analysis
[11] = Metal chelating activity assessed as Cu2+-compound complex formation in PBS buffer at pH 7.4 at 37.5 uM by UV-Visible spectra analysis
[12] = Metal chelating activity assessed as Fe2+-compound complex formation in PBS buffer at pH 7.4 at 37.5 uM by UV-Visible spectra analysis
[13] = Disaggregation of Cu2+ induced amyloid beta (unknown origin) aggregation after 48 hrs by TEM analysis
HT-22 [14] = experiment: Activation of ubiquitin-proteasome system in mouse HT-22 cells expressing pRK5-GFP-Tau assessed as increase in tau degradation by measuring reduction in GFP level after 24 hrs by fluorescence microscopic method; format: cell-based; conditions: filed as activator, dose 2.5-20 µM
HT-22 [15] = experiment: Activation of ubiquitin-proteasome system in mouse HT-22 cells expressing pRK5-GFP-Tau assessed as increase in tau degradation by measuring reduction in GFP level at 2.5 to 20 uM after 24 hrs by Western blot analysis; format: cell-based; conditions: filed as activator, dose 2.5-20 µM
HT-22 [16] = experiment: Activation of ubiquitin-proteasome system in mouse HT-22 cells expressing pRK5-GFP-Tau P301L mutant assessed as increase in tau degradation by measuring reduction in GFP level at 2.5 to 20 uM after 24 hrs by Western blot analysis; format: cell-based; conditions: filed as activator, dose 2.5-20 µM
HT-22 [17] = experiment: Activation of ubiquitin-proteasome system in mouse HT-22 cells expressing pEGFP-N1-APP assessed as increase in APP degradation by measuring reduction in GFP level at 2.5 to 20 uM after 24 hrs by fluorescence microscopic method; format: cell-based; conditions: filed as activator, dose 2.5-20 µM
HT-22 [18] = experiment: Activation of ubiquitin-proteasome system in mouse HT-22 cells expressing pEGFP-N1-APP assessed as increase in APP degradation by measuring reduction in GFP level at 2.5 to 20 uM after 24 hrs by flow cytometric analysis; format: cell-based; conditions: filed as activator, dose 2.5-20 µM
HT-22 [19] = experiment: Activation of ubiquitin-proteasome system in mouse HT-22 cells expressing pEGFP-N1-APP assessed as increase in APP degradation by measuring reduction in GFP level at 2.5 to 20 uM after 24 hrs by Western blot analysis; format: cell-based; conditions: filed as activator, dose 2.5-20 µM
HT-22 [20] = experiment: Activation of ubiquitin-proteasome system in mouse HT-22 cells expressing YFP-CLI assessed as reduction in GFP level at 10 uM after 24 hrs by fluorescence microscopic method; format: cell-based; conditions: filed as activator
U-87MG ATCC = experiment: Induction of autophagy in human U87 cells stably transfected GFP-LC3 assessed as increase in GFP-LC3 puncta formation at 10 uM after 24 hrs by fluorescence microscopic method; format: functional, cell-based
[21] = Toxicity in 2 dpf zebra fish assessed as dark brown liver at 8.33 ug/ml after 3 days relative to control; set-up: species or system Danio rerio; conditions: zebrafish, 72 h, at 8.33 µg/mL, time 3 day
[22] = Toxicity in 2 dpf zebra fish assessed as slow blood flow at 25 ug/ml after 3 days relative to control; format: tissue-based, Danio rerio; conditions: zebrafish, 72 h, at 25 µg/mL, time 3 day
[23] = Toxicity in 2 dpf zebra fish assessed as short or misshapen eye at 25 ug/ml after 3 days relative to control; set-up: species or system Danio rerio; conditions: zebrafish, 72 h, at 25 µg/mL, time 3 day
[24] = Toxicity in 3 dpf zebra fish assessed as mortality at 1.56 ug/ml (reference value: 0%); set-up: species or system Danio rerio; conditions: zebrafish, at 1.56 µg/mL, read-out: Activity
[25] = Toxicity in 3 dpf zebra fish assessed as mortality at 6.25 ug/ml (reference value: 0%); set-up: species or system Danio rerio; conditions: zebrafish, at 6.25 µg/mL, read-out: Activity
[26] = Toxicity in 3 dpf zebra fish assessed as mortality at 12.5 ug/ml (reference value: 0%); set-up: species or system Danio rerio; conditions: zebrafish, at 12.5 µg/mL, read-out: Activity
[27] = Toxicity in 3 dpf zebra fish assessed as mortality at 25 ug/ml (reference value: 0%); set-up: species or system Danio rerio; conditions: zebrafish, at 25 µg/mL, read-out: Activity
[28] = Toxicity in 3 dpf zebra fish assessed as mortality at 50 ug/ml (reference value: 0%); set-up: species or system Danio rerio; conditions: zebrafish, at 50 µg/mL, read-out: Activity
[29] = Toxicity in 3 dpf zebra fish assessed as pericardium edema at 1.56 ug/ml; set-up: species or system Danio rerio; conditions: zebrafish; dose 1.56 µg/ml
[30] = Toxicity in 3 dpf zebra fish assessed as blood flow retardation at 1.56 ug/ml; format: tissue-based, Danio rerio; conditions: zebrafish, dose 1.56 µg/ml
Danio rerio [31] = species: Danio rerio; experiment: Antialzheimer activity in Alcl3-induced zebra fish AD model assessed as increase dyskinesia recovery rate at 0.78 ug/ml relative to control; format: functional; conditions: dose 0.78 µg/ml
Danio rerio [32] = species: Danio rerio; experiment: Antialzheimer activity in amyloid beta (1 to 40 residues)-induced zebra fish AD model assessed as reduction in vascular injury at 0.09 ug/ml relative to control; format: functional; set-up: scale not given: the % may be the effect or the level left; conditions: dose 0.09 µg/ml
[33] = Toxicity in Kunming mouse assessed as abnormal behavior up to 5000 mg/kg, po after 14 days; format: organism-based; conditions: in vivo, 336 h, time 14 day
Mus musculus [34] = experiment: Antialzheimer activity in scopolamine-induced Kunming mouse model of memory impairment assessed as Q30 bases ratio (QC data) in brain hippocampus at 5 mg/kg , po by illumina sequencing method (reference value: 96.67%); format: functional
[35] = Drug metabolism in mouse urine assessed as metabolite formation by UPLC-TOF analysis; format: ADME
[36] = Drug metabolism in rat liver microsomes assessed as metabolite formation by UPLC-TOF analysis; format: ADME, Microsome

Acetylcholinesterase, sequence (P22303 whole entry, the tested form may be a part): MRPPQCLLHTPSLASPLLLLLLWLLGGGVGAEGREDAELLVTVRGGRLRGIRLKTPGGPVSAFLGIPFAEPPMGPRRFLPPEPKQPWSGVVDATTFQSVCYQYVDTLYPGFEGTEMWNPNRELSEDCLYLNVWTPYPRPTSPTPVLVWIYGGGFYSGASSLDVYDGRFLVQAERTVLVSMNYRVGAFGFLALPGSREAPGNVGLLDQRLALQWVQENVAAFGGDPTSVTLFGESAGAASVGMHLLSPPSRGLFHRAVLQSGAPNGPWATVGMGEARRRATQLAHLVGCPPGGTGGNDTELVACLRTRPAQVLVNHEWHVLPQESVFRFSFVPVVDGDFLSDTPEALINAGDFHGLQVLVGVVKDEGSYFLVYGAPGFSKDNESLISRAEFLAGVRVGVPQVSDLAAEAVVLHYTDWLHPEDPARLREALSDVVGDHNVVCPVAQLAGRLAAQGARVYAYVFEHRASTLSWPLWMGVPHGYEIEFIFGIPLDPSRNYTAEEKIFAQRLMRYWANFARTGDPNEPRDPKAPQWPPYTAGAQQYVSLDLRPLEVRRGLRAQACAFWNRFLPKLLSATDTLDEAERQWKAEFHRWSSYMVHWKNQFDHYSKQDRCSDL

## CCN(CCCCOc1ccc(-c2cc(=O)c3c(O)cc(OCCCCN(CC)Cc4ccccc4)cc3o2)cc1)Cc1ccccc1
Acetylcholinesterase
  IC50: 0.36 µM
[1]
  IC50: 5.8 µM
PC-12
  Activity: Active
Mus musculus [2]
  Activity: 93.58%
Cholinesterase [3]
  Activity: 42.3%
Cholinesterase [4]
  Activity: 50%
[5]
  Kd: 1.2 µM
Homo sapiens [6]
  Activity: Dose-dependent effect
Homo sapiens [7]
  Kdiss: 2.56 10^-2/s
[8]
  Activity: Active
[9]
  Activity: Active
[10]
  Activity: inactive
[11]
  Activity: Active
[12]
  Activity: Active
[13]
  Activity: Active
HT-22 [14]
  Activity: Dose-dependent effect
HT-22 [15]
  Activity: Active
HT-22 [16]
  Activity: Active
HT-22 [17]
  Activity: Active
HT-22 [18]
  Activity: Active
HT-22 [19]
  Activity: Active
HT-22 [20]
  Activity: Active
U-87MG ATCC
  Activity: Active
[21]
  Activity: 70%
[22]
  Activity: 46.7%
[23]
  Activity: 433%
[24]
  mortality at 1.56 ug/ml: 6.7%
[25]
  mortality at 6.25 ug/ml: 100%
[26]
  mortality at 12.5 ug/ml: 100%
[27]
  mortality at 25 ug/ml: 100%
[28]
  mortality at 50 ug/ml: 100%
[29]
  Activity: Toxic
[30]
  Activity: Toxic
Danio rerio [31]
  Activity: 87%
Danio rerio [32]
  Activity: 9%
[33]
  Activity: Non-Toxic
Mus musculus [34]
  Activity: 96.56%
[35]
  Drug metabolism: Metabolite_Detected
[36]
  Drug metabolism: Metabolite_Detected
